PubChem BioAssay (NCI)
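Interpolation was linear, between the two tested concentrations surrounding the appropriate level; five concentrations were tested over 48 hours in 96-well plates. The concentration for 50% growth inhibition is given as GI50. TGI: total growth inhibition.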

How the values were obtained:
Experiment in all cases: NCI anticancer screen, dose series, 48 h
HOP-18 NSCLC = tested on: HOP-18 NSCLC
DLD-1 colon = tested on: DLD-1 colon
M19-MEL melanoma = tested on: M19-MEL melanoma
SNB-78 CNS = tested on: SNB-78 CNS
LXFL 529 NSCLC = tested on: LXFL 529 NSCLC
DMS 114 small cell lung = tested on: DMS 114 small cell lung
RXF-631 renal = tested on: RXF-631 renal
DMS 273 small cell lung = tested on: DMS 273 small cell lung
MDA-N = tested on: MDA-N

Structure (SMILES)	TGI (HOP-18 NSCLC) [µM]	TGI (DLD-1 colon) [µM]	TGI (M19-MEL melanoma) [µM]	TGI (SNB-78 CNS) [µM]	TGI (LXFL 529 NSCLC) [µM]	TGI (DMS 114 small cell lung) [µM]	TGI (RXF-631 renal) [µM]	GI50 (DMS 273 small cell lung) [µM]	TGI (DMS 273 small cell lung) [µM]	GI50 (HOP-18 NSCLC) [µM]	GI50 (DLD-1 colon) [µM]	GI50 (SNB-78 CNS) [µM]	GI50 (LXFL 529 NSCLC) [µM]	GI50 (RXF-631 renal) [µM]	GI50 (MDA-N) [µM]	TGI (MDA-N) [µM]	GI50 (DMS 114 small cell lung) [µM]	GI50 (M19-MEL melanoma) [µM]
NC1=NC(=O)C(CC(=O)Nc2ccc([N+](=O)[O-])cc2[N+](=O)[O-])S1 (stereo not given)	> 100	> 100	> 100	> 100	> 100	> 100	> 100											
c1cc[c]([Sn]([S]c2cccc3cccnc23)([c]2ccccc2)[c]2ccccc2)cc1	0.214	0.101	0.172	0.0659	0.0548		0.0804	0.0173	0.0344	0.0784	0.0321	0.0203	0.0209	0.0256				
CC1(C)CCc2cc3c(cc2O1)OCCC3=O	> 100	> 100	> 100		> 100	> 100	> 100											
c1ccc2c(c1)N=C(c1cccc3ccccc13)CC(c1cccc3ccccc13)S2 (stereo not given)	13.8	16.2	20.3	33.4	11.4	9.96			> 44.7									
CCOC(=O)Cc1nc(/C(C#N)=C/c2ccco2)[nH]c(=O)c1C#N	> 100	> 100	> 100	93.9	> 100				> 100									
CC(=O)[CH-]C(C)=O.CC(=O)[CH-]C(C)=O.N=CC=N.[Sn+2]	23.7	3.26			2.6	5.17		2.91	8.57	11.5	1.71		1.32		1.68	3.69	2.32	
CC(=O)c1c(C)n([O-])c2cc(C)c(C)cc2[n+]1=O	> 100	> 100	> 100	> 100	> 100	> 100	> 100		> 100									
O=C1N[C@@H](O)[C@@H]2ON=C(c3ccccc3)[C@H]12	> 100	> 100	> 100		> 100	> 100	> 100		> 100									
CC(C)(C)c1nc2c(o1)C(=Nc1ccc(F)cc1)c1ccccc1C2=O	28.8	> 100	3.08	> 100	> 100	7.81			10.5							5.35		
COc1ccc2c(-c3cc4ccccc4o3)cc(=O)oc2c1	> 100	> 100	> 100	> 100	> 100		> 100		> 100							> 100		
COc1cc(/C=C\c2ccc(O)cc2)cc(OC)c1OC	> 100	> 100	> 100	8.3	> 100				2.9									
Clc1ccc(CNc2nc3ccccc3nc2-c2cccs2)c(Cl)c1	> 100		> 100	> 100	> 100		> 100		> 100									
CC(=O)OCCOCBr	> 100	> 100	> 100		> 100	> 100	> 100		> 100									
CC1=Nc2c(ccc3c2C(=O)c2ccccc2C3=O)NC(c2ccncc2)C1 (stereo not given)	> 100	> 100	> 100	> 100	> 100	> 100	> 100	> 100	> 100	> 100		> 100	> 100					> 100
CCCCCC(C(O)C#N)C(O)(C(F)(F)F)C(F)(F)F (stereo not given)																> 10		
CC(O)CN1C(=O)NC(Cc2ccccc2)C1=O (stereo not given)	> 100	> 100		> 100	> 100	> 100			> 100									
C[C@H]1CCC/C=C/[C@@H]2C[C@H](N)C[C@H]2[C@H](O)/C=C/C(=O)O1															> 100	> 100		

Structure (SMILES)	TGI (HOP-18 NSCLC) [µM]	TGI (DLD-1 colon) [µM]	TGI (M19-MEL melanoma) [µM]	TGI (SNB-78 CNS) [µM]	TGI (LXFL 529 NSCLC) [µM]	TGI (DMS 114 small cell lung) [µM]	TGI (RXF-631 renal) [µM]	GI50 (DMS 273 small cell lung) [µM]	TGI (DMS 273 small cell lung) [µM]	GI50 (HOP-18 NSCLC) [µM]	GI50 (DLD-1 colon) [µM]	GI50 (SNB-78 CNS) [µM]	GI50 (LXFL 529 NSCLC) [µM]	GI50 (RXF-631 renal) [µM]	GI50 (MDA-N) [µM]	TGI (MDA-N) [µM]	GI50 (DMS 114 small cell lung) [µM]	GI50 (M19-MEL melanoma) [µM]
CN(C)C(=S)/N=c1\ss/c(=N\S(=O)(=O)c2ccccc2)n1-c1ccccc1	> 100	> 100	> 100	> 100		50.3	> 100		> 100									
Clc1cc(Cl)c2c(Cl)cc(Cl)c3c2c1N=S=N3	> 100	> 100	> 100	> 100	> 100	> 100			> 100									
CC(C)(C)C1(O)Cc2ccccc2C(=O)O1 (stereo not given)	> 100	> 100	> 100	> 100	> 100	> 100	> 100		> 100									
CN1CCN(C)C1c1cccc(C2N(C)CCN2C)c1		> 100	> 100	> 100	> 100	> 100	> 100		> 100									
COc1ccc(C2C(N)=NCC2c2ccccn2)cc1 (stereo not given)	97.9	> 100	> 100	> 100	> 100	> 100	> 100											
NS(=O)(=O)c1ccc(NC(=O)c2cccc3c(=O)c4ccccc4[nH]c23)cc1	> 100	> 100	> 100	> 100	> 100	> 100			> 100									
CC1CCCC(C(=O)/C(=C/c2cccc(Cl)c2)C(=O)C(=O)O)C1 (stereo not given)	> 100	40.3	32.7	> 100	43	45.7			> 100									
COc1ccc2c(c1)[C@@]13CCN4CC5=CCO[C@H]6CC(=O)N2[C@H]1[C@H]6[C@H]5C[C@H]43																> 100		
Oc1c(Br)cc(CN(Cc2cc(Br)c(O)c(Br)c2)C2CCCCC2)cc1Br																> 100		
N#Cc1c(N)c(C(=O)O)nn(-c2cccc(C(F)(F)F)c2)c1=O	> 100	> 100	> 100	> 100	> 100		> 100											
Oc1c2c(c(O)c3ccccc13)=N[C@@H](c1ccccc1)[C@H](c1ccccc1)N=2		> 100	> 100	> 100	> 100	> 100			> 100									
CC/C=C\C/C=C\C1CC(=O)NCCCNCCCCN1 (stereo not given)		> 100	> 100	> 100	> 100	> 100			> 100									
C=C(COC(C)=O)CC(/C=C(\C)CCC=C(C)C)OC(C)=O (stereo not given)		> 100	> 100	> 100	> 100	> 100			> 100									
Cn1c(N)nc2c(nc(OCc3ccccc3)n2C2OC(CO)C(O)C2O)c1=O (stereo not given)																> 100		
O=c1c2ccccc2c2c3c1cccc3c1cccc3c(=O)c4ccccc4c2c31	> 100	> 100	> 100	> 100	> 100	> 100	> 100		> 100									
O=C(Nc1ccc(S(=O)(=O)N[C@@H](C(=O)O)c2ccccc2)cc1)c1ccc(F)cc1	> 100	> 100	> 100		> 100				> 100									
O=C1c2ccccc2-c2cccc3ccc(Cc4ccccc4)c1c23		> 100	> 100	> 100	> 100	> 100	> 100		> 100									
